# Measurements published in US4122034A, “Antimicrobial compositions” (Schering Corporation, priority 1975, dated 1978).
# Columns and labels:
# Type in all cases: cell-based
# [1] = test system: Proteus morganii; assay: In vitro antibacterial activity, dilution in Mueller Hinton Agar (Table I); conditions: Morganella morganii; strain Valz; Mueller Hinton Agar pH 7.4
# Method in brief: (§1)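 MIC read-out. Mueller Hinton medium adjusted to pH 7.4; standard test and scoring conditions.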
# [2] = test system: Salmonella; assay: as above
# Method in brief: as §1
# [3] = test system: Escherichia coli; assay: as above
# Method in brief: as §1
# [4] = test system: Proteus rettgeri; assay: as above; conditions: Providencia rettgeri; 'Proteus rettgeri mirabilis' [sic]; Mueller Hinton Agar pH 7.4
# Method in brief: as §1
# [5] = test system: Candida albicans; assay: In vitro Anti-Candida activity, dilutions in Sabouraud's Dextrose Agar (Table III); conditions: 48 h
# Procedure: All the tests were carried out and (when necessary) scored under standard conditions. "MIC" means "minimum inhibitory concentration."
# In vitro Anti-Candida Activity of 2-aminoalkyl-3-phenyl-
# indoles of the formula I. Dilutions in Sabouraud's Dextrose
# MIC (mcg/ml) after 48 hours
# [6] = TYPHI, pH 7.4, B typhi, Mueller Hinton Agar pH 7.4
# [7] = pH 7.4, C1 Oao, Mueller Hinton Agar pH 7.4
# [8] = pH 7.4, C2 Cuban, Mueller Hinton Agar pH 7.4
# [9] = pH 7.4, C2 Napc, Mueller Hinton Agar pH 7.4
# [10] = pH 7.4, Salmonella ent. 1, Mueller Hinton Agar pH 7.4
# [11] = pH 7.4, strain 777, Mueller Hinton Agar pH 7.4
# [12] = pH 7.4, strain 1574-1, Mueller Hinton Agar pH 7.4
# [13] = pH 7.4, strain 4195, Mueller Hinton Agar pH 7.4
# [14] = pH 7.4, strain 10536, Mueller Hinton Agar pH 7.4
# [15] = pH 7.4, strain JR66, Mueller Hinton Agar pH 7.4
# [16] = strain Atkisson, after 48 hours
# [17] = strain Bertrand, after 48 hours
# [18] = strain Burnside, after 48 hours
# [19] = strain Kenndy 2, after 48 hours
# [20] = strain Kennedy 1, after 48 hours
# [21] = strain Shurelli, after 48 hours
smiles,measurement,setting,value
"NCc1[nH]c2ccc(Cl)cc2c1-c1c(F)cccc1F [B, 2-aminomethyl-5-chloro-3-(2,6-difluorophenyl)indole]",MIC,[1],17.5 µg/mL
same,MIC,[2]; [6],7.5 µg/mL
same,MIC,[2]; [7],7.5 µg/mL
same,MIC,[2]; [8],7.5 µg/mL
same,MIC,[2]; [9],7.5 µg/mL
same,MIC,[2]; [10],7.5 µg/mL
same,MIC,[3]; [11],7.5 µg/mL
same,MIC,[3]; [12],7.5 µg/mL
same,MIC,[3]; [13],7.5 µg/mL
same,MIC,[3]; [14],7.5 µg/mL
same,MIC,[3]; [15],7.5 µg/mL
same,MIC,[4],17.5 µg/mL
same,MIC,"[5]; strain 1, after 48 hours",150 µg/mL
same,MIC,"[5]; strain 2, after 48 hours",75 µg/mL
same,MIC,"[5]; strain 3, after 48 hours",150 µg/mL
same,MIC,"[5]; strain 4, after 48 hours",75 µg/mL
same,MIC,"[5]; strain 5, after 48 hours",75 µg/mL
same,MIC,"[5]; strain 6, after 48 hours",150 µg/mL
same,MIC,"[5]; strain 8, after 48 hours",150 µg/mL
same,MIC,"[5]; strain 9, after 48 hours",75 µg/mL
same,MIC,"[5]; strain 29, after 48 hours",75 µg/mL
same,MIC,[5]; [16],75 µg/mL
same,MIC,[5]; [17],150 µg/mL
same,MIC,"[5]; strain Bevan, after 48 hours",150 µg/mL
same,MIC,"[5]; strain Blunden, after 48 hours",75 µg/mL
same,MIC,"[5]; strain Bognay, after 48 hours",75 µg/mL
same,MIC,"[5]; strain Boyer, after 48 hours",150 µg/mL
same,MIC,"[5]; strain Burke, after 48 hours",75 µg/mL
same,MIC,[5]; [18],150 µg/mL
same,MIC,"[5]; strain Collins, after 48 hours",75 µg/mL
same,MIC,"[5]; strain Fix, after 48 hours",75 µg/mL
same,MIC,"[5]; strain Frazier, after 48 hours",150 µg/mL
same,MIC,"[5]; strain Fulcher, after 48 hours",75 µg/mL
same,MIC,"[5]; strain Gay, after 48 hours",150 µg/mL
same,MIC,"[5]; strain Hons, after 48 hours",150 µg/mL
same,MIC,"[5]; strain Johnson, after 48 hours",150 µg/mL
same,MIC,[5]; [19],150 µg/mL
same,MIC,[5]; [20],75 µg/mL
same,MIC,"[5]; strain Lehtman, after 48 hours",150 µg/mL
same,MIC,"[5]; strain Lusk, after 48 hours",75 µg/mL
same,MIC,"[5]; strain Merkel, after 48 hours",75 µg/mL
same,MIC,"[5]; strain Newcomb, after 48 hours",37.5 µg/mL
same,MIC,"[5]; strain Sherod, after 48 hours",150 µg/mL
same,MIC,[5]; [21],150 µg/mL
same,MIC,"[5]; strain Sparks, after 48 hours",150 µg/mL
same,MIC,"[5]; strain Tyner, after 48 hours",150 µg/mL
"NCc1[nH]c2ccc(Cl)cc2c1-c1ccccc1F [A, 2-Aminomethyl-5-chloro-3-(2-fluorophenyl)indole]",MIC,[1],17.5 µg/mL
same,MIC,[2]; [6],7.5 µg/mL
same,MIC,[2]; [7],7.5 µg/mL
same,MIC,[2]; [8],7.5 µg/mL
same,MIC,[2]; [9],3 µg/mL
same,MIC,[2]; [10],7.5 µg/mL
same,MIC,[3]; [11],3 µg/mL
same,MIC,[3]; [12],7.5 µg/mL
same,MIC,[3]; [13],3 µg/mL
same,MIC,[3]; [14],7.5 µg/mL
same,MIC,[3]; [15],3 µg/mL
same,MIC,[4],17.5 µg/mL
same,MIC,"[5]; strain 1, after 48 hours",75 µg/mL
same,MIC,"[5]; strain 2, after 48 hours",75 µg/mL
same,MIC,"[5]; strain 3, after 48 hours",75 µg/mL
same,MIC,"[5]; strain 4, after 48 hours",75 µg/mL
same,MIC,"[5]; strain 5, after 48 hours",75 µg/mL
same,MIC,"[5]; strain 6, after 48 hours",75 µg/mL
same,MIC,"[5]; strain 8, after 48 hours",75 µg/mL
same,MIC,"[5]; strain 9, after 48 hours",75 µg/mL
same,MIC,"[5]; strain 29, after 48 hours",75 µg/mL
same,MIC,[5]; [16],75 µg/mL
same,MIC,[5]; [17],75 µg/mL
same,MIC,"[5]; strain Bevan, after 48 hours",75 µg/mL
same,MIC,"[5]; strain Blunden, after 48 hours",75 µg/mL
same,MIC,"[5]; strain Bognay, after 48 hours",75 µg/mL
same,MIC,"[5]; strain Boyer, after 48 hours",75 µg/mL
same,MIC,"[5]; strain Burke, after 48 hours",75 µg/mL
same,MIC,[5]; [18],75 µg/mL
same,MIC,"[5]; strain Collins, after 48 hours",75 µg/mL
same,MIC,"[5]; strain Fix, after 48 hours",75 µg/mL
same,MIC,"[5]; strain Frazier, after 48 hours",75 µg/mL
same,MIC,"[5]; strain Fulcher, after 48 hours",75 µg/mL
same,MIC,"[5]; strain Gay, after 48 hours",75 µg/mL
same,MIC,"[5]; strain Hons, after 48 hours",75 µg/mL
same,MIC,"[5]; strain Johnson, after 48 hours",75 µg/mL
same,MIC,[5]; [19],75 µg/mL
same,MIC,[5]; [20],37.5 µg/mL
same,MIC,"[5]; strain Lehtman, after 48 hours",75 µg/mL
same,MIC,"[5]; strain Lusk, after 48 hours",75 µg/mL
same,MIC,"[5]; strain Merkel, after 48 hours",75 µg/mL
same,MIC,"[5]; strain Newcomb, after 48 hours",37.5 µg/mL
same,MIC,"[5]; strain Sherod, after 48 hours",75 µg/mL
same,MIC,[5]; [21],75 µg/mL
same,MIC,"[5]; strain Sparks, after 48 hours",75 µg/mL
same,MIC,"[5]; strain Tyner, after 48 hours",75 µg/mL
